In general, melting point refers to the temperature of the solid-liquid transition.

Drawing on US9896454B2, “Microbiocidal heterobicyclic derivatives” (Syngenta Participations AG, priority 2014, dated 2018), this text covers melting point for 24 molecules.

Turning to `CC1(C)N=C(c2cnc3c(Br)cc(Br)n3c2)c2cccc(F)c2C1(C)C` [E 39], the melting point was in the range of 141 to 143 °C.
The result for `COc1ccc2ncc(C3=NC(C)(C)C(C)(C)c4c(F)cccc43)cn12` [E 1] reads 120 to 122 °C.
With `CC1(C)Cc2c(F)cccc2C(c2cnc3c(Br)cnn3c2)=N1` [E 17, 1-(3-bromopyrazolo[1,5-a]pyrimidin-6-yl)-5-fluoro-3,3-dimethyl-4H-isoquinoline], the melting point was in the range of 121 to 123 °C.
`CC1(C)N=C(c2cnc3c(C#N)cnn3c2)c2cccc(F)c2C1(C)C` [E 16] had a melting point of 179 to 182 °C.
The result for `CC1(C)N=C(c2cnc3c(F)cnn3c2)c2cccc(F)c2C1(C)C` [E 26] reads 198 to 200 °C.
In turn, `Cc1nn2cc(C3=NC(C)(C)C(C)(C)c4c(F)cccc43)cnc2c1Br` [E 13] displayed a melting point of 132 to 134 °C.
Regarding `CC1(C)N=C(c2cnc3cccn3c2)c2cccc(F)c2C1(C)C` [E 2, 5-fluoro-3,3,4,4-tetramethyl-1-pyrrolo[1,2-a]pyrimidin-3-yl-isoquinoline], the melting point lay in the range of 130 to 134 °C.
`Cc1nn2cc(C3=NC(C)(C)C(C)(C)c4c(F)cccc43)cnc2c1C#N` [E 23] registered a melting point of 176 to 178 °C.
On to `CC1(C)N=C(c2cnc3c(Br)cnn3c2)c2cccc(F)c2C1(C)C` [E 14], for which the melting point lay within 58 to 61 °C.
Take `CC1(C)Cc2c(Cl)cccc2C(c2cnc3ccnn3c2)=N1` [E 10]: the melting point is 105 °C.
Under `CC1(C)N=C(c2cnc3ccc(Br)n3c2)c2cccc(F)c2C1(C)C` [E 4] stands 166 to 167 °C; under `Cc1cnn2cc(C3=NC(C)(C)C(F)(F)c4c(F)cccc43)cnc12` [E 22], 135 to 138 °C; under `CC1(C)N=C(c2cnc3c(C#N)cnn3c2)c2cccc(F)c2C1(F)F` [E 24, 6-(4,4,5-trifluoro-3,3-dimethyl-1-isoquinolyl)pyrazolo[1,5-a]pyrimidine-3-carbonitrile], 215 to 217 °C.
The molecule `CC1(C)N=C(c2cnc3c(Br)cnn3c2)c2cccc(F)c2C1=O` [E 19, 1-(3-bromopyrazolo[1,5-a]pyrimidin-6-yl)-5-fluoro-3,3-dimethyl-isoquinolin-4-one] returned a melting point of 201 to 203 °C.
Under `Cc1cnn2cc(C3=NC(C)(C)C(C)(C)c4c(F)cccc43)cnc12` [E 15] stands 126 to 128 °C; under `Cc1nn2cc(C3=NC(C)(C)C(C)(C)c4c(F)cccc43)cnc2c1C` [E 25], 136 to 139 °C.
Consider `Cc1cccc2c1CC(C)(C)N=C2c1cnc2nccn2c1` [E 30], for which the melting point was in the range of 157 to 158 °C.
In turn, `CC1(C)N=C(c2cnc3c(Br)cnn3c2)c2cccc(F)c2C1(F)F` [E 21, 1-(3-bromopyrazolo[1,5-a]pyrimidin-6-yl)-4,4,5-trifluoro-3,3-dimethyl-isoquinoline] yielded a melting point of 164 to 166 °C.
As to `CC1(C)N=C(c2cnc3nc(Br)cn3c2)c2cccc(F)c2C1(C)C` [E 31], the melting point was in the range of 134 to 136 °C.
As for `CC1(C)N=C(c2cnc3nccn3c2)c2cccc(F)c2C1(C)C` [E 27], the melting point fell in the range of 240 to 242 °C.
`CC1(C)Cc2c(F)cccc2C(c2cnc3ccnn3c2)=N1` [E 9]: the melting point lay in the range of 159 to 160 °C.
`CSc1nn2cc(C3=NC(C)(C)C(C)(C)c4c(F)cccc43)cnc2c1C#N` [E 20] yielded a melting point of 112 to 114 °C.
The result for `CC1(C)Cc2c(F)cccc2C(c2cnc3nccn3c2)=N1` [E 28] reads 227 to 229 °C; that for `Cc1cc2ncc(C3=NC(C)(C)C(C)(C)c4c(F)cccc43)cn2n1` [E 12], 180 to 190 °C.
